# ChEMBL document CHEMBL1147331, “Cytotoxic and antimalarial bisbenzylisoquinoline alkaloids from Stephania erecta” (J Nat Prod, 1993)
# Experiments:
# Plasmodium falciparum [1] = assay: Antimalarial activity after 24 hrs against chloroquine-sensitive Plasmodium falciparum D6 infected type A+ human erythrocytes by [3H]hypoxanthine uptake; format: functional; conditions: read-out: ED50 (the source's name)
# Plasmodium falciparum [2] = assay: Antimalarial activity after 24 hrs against chloroquine-resistant Plasmodium falciparum W2 infected type A+ human erythrocytes by [3H]hypoxanthine uptake; format: functional; conditions: read-out: ED50 (the source's name)
# [3] = Cytotoxicity against human BCA1 cells after 3 days by sulforhodamine B assay; format: cell-based; conditions: read-out: ED50
# [4] = Cytotoxicity against human HT1080 cells after 3 days by sulforhodamine B assay; format: cell-based, HT-1080; conditions: read-out: ED50
# [5] = Cytotoxicity against human LUC1 cells after 3 days by sulforhodamine B assay; format: cell-based; conditions: read-out: ED50
# [6] = Cytotoxicity against human SK-MEL-2 cells after 3 days by sulforhodamine B assay; format: cell-based; conditions: read-out: ED50
# [7] = Cytotoxicity against human Col1 cells after 3 days by sulforhodamine B assay; format: cell-based; conditions: read-out: ED50
# [8] = Cytotoxicity against human KB cells after 3 days by sulforhodamine B assay; format: cell-based; conditions: read-out: ED50
# [9] = Cytotoxicity against human KBV1 cells after 3 days by sulforhodamine B assay; format: cell-based, KB-V1; conditions: read-out: ED50
# [10] = Cytotoxicity against mouse P388 cells after 2 days by sulforhodamine B assay; format: cell-based; conditions: read-out: ED50
# [11] = Cytotoxicity against human A431 cells after 3 days by sulforhodamine B assay; format: cell-based, A-431; conditions: read-out: ED50
# [12] = Cytotoxicity against human LNCAP cells after 3 days by sulforhodamine B assay; format: cell-based; conditions: read-out: ED50
# [13] = Cytotoxicity against human ZR-75-1 cells after 3 days by sulforhodamine B assay; format: cell-based; conditions: read-out: ED50
# [14] = Selectivity index, ratio of ED50 for human BCA1 cells to ED50 for chloroquine-sensitive Plasmodium falciparum D6; format: toxicity, cell-based; conditions: read-out: Ratio ED50
# [15] = Selectivity index, ratio of ED50 for human BCA1 cells to ED50 for chloroquine-resistant Plasmodium falciparum W2; format: toxicity, cell-based; conditions: read-out: Ratio ED50
# [16] = Selectivity index, ratio of ED50 for human HT1080 cells to ED50 for chloroquine-sensitive Plasmodium falciparum D6; format: toxicity, cell-based, HT-1080; conditions: read-out: Ratio ED50
# [17] = Selectivity index, ratio of ED50 for human HT1080 cells to ED50 for chloroquine-resistant Plasmodium falciparum W2; format: toxicity, cell-based, HT-1080; conditions: read-out: Ratio ED50
# [18] = Selectivity index, ratio of ED50 for human MEL2 cells to ED50 for chloroquine-sensitive Plasmodium falciparum D6; format: toxicity, cell-based; conditions: read-out: Ratio ED50
# [19] = Selectivity index, ratio of ED50 for human MEL2 cells to ED50 for chloroquine-resistant Plasmodium falciparum W2; format: toxicity, cell-based; conditions: read-out: Ratio ED50
# [20] = Selectivity index, ratio of ED50 for human COL1 cells to ED50 for chloroquine-sensitive Plasmodium falciparum D6; format: toxicity, cell-based; conditions: read-out: Ratio ED50
# [21] = Selectivity index, ratio of ED50 for human COL1 cells to ED50 for chloroquine-resistant Plasmodium falciparum W2; format: toxicity, cell-based; conditions: read-out: Ratio ED50
# [22] = Selectivity index, ratio of ED50 for human KB cells to ED50 for chloroquine-sensitive Plasmodium falciparum D6; format: toxicity, cell-based; conditions: read-out: Ratio ED50
# [23] = Selectivity index, ratio of ED50 for human KB-V1 cells to ED50 for chloroquine-sensitive Plasmodium falciparum D6; format: toxicity, cell-based; conditions: read-out: Ratio ED50
# [24] = Selectivity index, ratio of ED50 for human KB-V1 cells to ED50 for chloroquine-resistant Plasmodium falciparum W2; format: toxicity, cell-based; conditions: read-out: Ratio ED50
# [25] = Selectivity index, ratio of ED50 for human LNCaP cells to ED50 for chloroquine-sensitive Plasmodium falciparum D6; format: toxicity, cell-based; conditions: read-out: Ratio ED50
# [26] = Selectivity index, ratio of ED50 for human LNCaP cells to ED50 for chloroquine-resistant Plasmodium falciparum W2; format: toxicity, cell-based; conditions: read-out: Ratio ED50
# [27] = Selectivity index, ratio of ED50 for human ZR-75-1 cells to ED50 for chloroquine-sensitive Plasmodium falciparum D6; format: toxicity, cell-based; conditions: read-out: Ratio ED50
# [28] = Selectivity index, ratio of ED50 for human ZR-75-1 cells to ED50 for chloroquine-resistant Plasmodium falciparum W2; format: toxicity, cell-based; conditions: read-out: Ratio ED50
# in vitro [29] = conditions: mouse, P388 cells
# Description: Selectivity index, ratio of ED50 for mice (Mus musculus) P388 cells to ED50 for chloroquine-sensitive Plasmodium falciparum D6
# in vitro [30] = conditions: mouse, P388 cells; remark: listed apart in the source
# Description: Selectivity index, ratio of ED50 for mice (Mus musculus) P388 cells to ED50 for chloroquine-resistant Plasmodium falciparum W2
# in vitro [31] = conditions: human, A431 cells
# Description: Selectivity index, ratio of ED50 for human A431 cells to ED50 for chloroquine-sensitive Plasmodium falciparum D6
# in vitro [32] = conditions: human, A431 cells; remark: listed apart in the source
# Description: Selectivity index, ratio of ED50 for human A431 cells to ED50 for chloroquine-resistant Plasmodium falciparum W2
# [33] = Selectivity index, ratio of ED50 for human LUC1 cells to ED50 for chloroquine-sensitive Plasmodium falciparum D6; format: toxicity, cell-based; conditions: read-out: Ratio ED50
# [34] = Selectivity index, ratio of ED50 for human LUC1 cells to ED50 for chloroquine-resistant Plasmodium falciparum W2; format: toxicity, cell-based; conditions: read-out: Ratio ED50
# [35] = Selectivity index, ratio of ED50 for human KB cells to ED50 for chloroquine-resistant Plasmodium falciparum W2; format: toxicity, cell-based; conditions: read-out: Ratio ED50
Compound,EC50 (Plasmodium falciparum [1]) [µg/mL],EC50 (Plasmodium falciparum [2]) [µg/mL],CC50 at 72 h [3] [µg/mL],CC50 at 72 h [4] [µg/mL],CC50 at 72 h [5] [µg/mL],CC50 at 72 h [6] [µg/mL],CC50 at 72 h [7] [µg/mL],CC50 at 72 h [8] [µg/mL],CC50 at 72 h [9] [µg/mL],CC50 at 48 h [10] [µg/mL],CC50 at 72 h [11] [µg/mL],CC50 at 72 h [12] [µg/mL],CC50 at 72 h [13] [µg/mL],selectivity ratio [14],selectivity ratio [15],selectivity ratio [16],selectivity ratio [17],selectivity ratio [27],selectivity ratio [28],selectivity ratio (in vitro [30]),other results
OC(c1cc(C(F)(F)F)nc2c(C(F)(F)F)cccc12)C1CCCCN1 (stereo not given) [MEFLOQUINE],0.009,0.0012,5.3,2.3,7.7,8.9,1,3.5,1.1,0.2,3,2.3,1.2,588,4420,256,1920,300,2250,166,selectivity ratio [18]: 989; selectivity ratio [19]: 7420; selectivity ratio [20]: 111; selectivity ratio [21]: 833; selectivity ratio [22]: 389; selectivity ratio [23]: 122; selectivity ratio [24]: 917; selectivity ratio [25]: 256; selectivity ratio [26]: 1920; selectivity ratio (in vitro [29]): 22; selectivity ratio (in vitro [31]): 333; selectivity ratio (in vitro [32]): 2500
COc1ccc2cc1Oc1ccc(cc1)C[C@H]1c3cc(c(OC)cc3CCN1C)Oc1c(O)c(OC)cc3c1[C@@H](C2)NCC3,0.0686,0.125,4.1,2.2,8.4,15.4,4.7,6.3,8.1,0.1,4.2,6.6,1.2,60,33,32,18,23,13,1,selectivity ratio [33]: 123; selectivity ratio [34]: 67; selectivity ratio [18]: 225; selectivity ratio [20]: 69; selectivity ratio [21]: 38; selectivity ratio [22]: 92; selectivity ratio [35]: 50; selectivity ratio [23]: 118; selectivity ratio [24]: 65; selectivity ratio [25]: 97; selectivity ratio [26]: 53; selectivity ratio (in vitro [29]): 2; selectivity ratio (in vitro [31]): 61; selectivity ratio (in vitro [32]): 34
CCN(CC)CCCC(C)Nc1ccnc2cc(Cl)ccc12 (stereo not given) [CHLOROQUINE],0.0025,0.0317,> 20,6.5,> 20,> 20,10.1,17.4,7.8,> 5,> 20,14.3,15.8,–,–,–,–,–,–,–,–
COc1ccc2cc1Oc1ccc(cc1)C[C@H]1c3c(cc(O)c(OC)c3Oc3cc4c(cc3OC)CCN(C)[C@@H]4C2)CCN1C,0.13,0.31,4.7,7.2,8.6,12.8,7.5,6.4,7.4,3.7,8.9,8.3,2.1,–,–,–,–,4,43,76,–
